Test results as given in US7611873B1, “Method for producing L-methionine by fermentation” (priority 1998, dated 2009).
Like-named read-outs stand apart in the source and are kept apart here.

Legend:
Type in all cases: biochemical
[1] = molecular target: T1, homoserine transsuccinylase (HTS) of W3110 strain (wild-type) (Escherichia coli, UniProt P07623); test: HTS activity in crude enzyme extract in the presence of inhibitors, W3110 (wild strain); conditions: no addition 22.3
T1 construct: The HTS activity in the crude enzyme extract was measured; endogenous in cells; host or cells: E. coli W3110 (wild strain), desalted crude enzyme extract
Protocol: (§1) In order to confirm the effect of the metJ deletion by the recombination, a crude enzyme extract was prepared from the cells, and the activities of HTS and cystathionine synthase were measured. The W3110 strain and the WΔJ strain were each inoculated to 2 ml of LB medium, and cultured at 37° C. overnight. 1 ml of the medium was centrifuged at 5,000 rpm for 10 minutes, and the cells were washed twice with 0.9% saline. The obtained cell were suspended in 1 ml of 0.9% saline, 0.5 ml of which was inoculated to 50 ml of Davis-Mingioli minimal medium (Davis B. D., and Mingioli, E. S., J. Bacteriol., 60, 17-28 (1950)) containing 5 mM L-methionine. The cells were cultured at 37° C. for 24 hours, then the medium was centrifuged at 8,000 rpm for 10 minutes, and the cells were washed twice with 0.9% saline. The cells were suspended in 3 ml of 50 mM potassium phosphate buffer (pH 7.5) containing 1 mM dithiothreitol. This suspension was subjected to a cell disruption treatment at 4° C. with a power of 150 W for 5 minutes by using an ultrasonicator (Kubota Co.). The sonicated suspension was centrifuged at 15,000 rpm for 30 minutes, and the supernatant was desalted in a Sephadex G-50 column (Pharmacia) to obtain a crude enzyme extract. The HTS activity and the cystathionine synthase activity in the crude enzyme extract were measured.
(§2) As for the HTS activity, 5 μl of the crude enzyme extract was added to a reaction mixture comprising 0.1 M potassium phosphate (pH 7.5), 1 mM succinyl-coenzyme A (Sigma), 0.2 nM DL-[^14C]homoserine (Muromachi Chemical Industry), and 0.2 mM L-homoserine to obtain a volume of 50 μl, and allowed to react at 30° C. for 10 minutes. 1 μl of the reaction mixture was spotted on a cellulose plate (Merck), and developed with a mixed solvent containing acetone, butanol, water, and diethylamine at a ratio of 10:10:5:2. After the plate was air-dried, autoradiography was performed by using an image analyzer (Fuji Photo Film).
(§3) The cells were washed twice with 1 ml of 0.9% saline, and suspended in 1 ml of 0.9% saline, 0.5 ml of which was inoculated to 50 ml of minimal medium and cultured at 37° C. for one day. The medium was centrifuged at 8,000 rpm for 10 minutes, and the cells were washed twice with 1 ml of 0.9% saline. The obtained cells were suspended in 3 ml of 50 mM potassium phosphate buffer (pH 7.5) containing 1 mM dithiothreitol, and a crude enzyme extract was obtained in the same manner as in Example 1. The HTS activity in the crude enzyme extract was measured with the reaction composition mentioned in Example 1 in the presence of an inhibitor.

[2] = molecular target: T2, HTS derived from MM resistant strain WMM5 (proline 298 changed to leucine) (Escherichia coli, UniProt P07623, P298L); conditions: for HTS activity in the presence of inhibitor: WMM5, no addition 4.5; for Inhibition of HTS activity (in words): WMM5 strain, compared with wild strain
T2 construct: The HTS activity in the crude enzyme extract was measured; endogenous in cells; host or cells: E. coli WMM5 (spontaneous MM-resistant mutant of W3110), crude enzyme extract
Protocol: as §1, §2
(§4) Chromosomal DNA was prepared from these resistant strains. PCR was performed by using each chromosomal DNA as a template and primers having the sequences represented as SEQ ID NOS: 21 and 22 to amplify the metA gene. The nucleotide sequence of each amplification fragment was determined by using primers for amplification of which nucleotide sequences are represented as SEQ ID NOS: 21 and 22, and primers having the sequences represented as SEQ ID NOS: 23 and 24.
as §3

[3] = molecular target: T3, HTS derived from MM resistant strain WMM4 (296th isoleucine changed to serine) (Escherichia coli, UniProt P07623, I296S); conditions: for HTS activity in the presence of inhibitor: WMM4, no addition 4.5; for Inhibition of HTS activity (in words): WMM4 strain, compared with wild strain
T3 construct: The HTS activity in the crude enzyme extract was measured; endogenous in cells; host or cells: E. coli WMM4 (spontaneous MM-resistant mutant of W3110), crude enzyme extract
Protocol: as §1, §2, §4, §3

[4] = molecular target: T4, HTS derived from MM resistant strain WMM9 (arginine 27 changed to cysteine) (Escherichia coli, UniProt P07623, R27C); conditions: for HTS activity in the presence of inhibitor: WMM9, no addition 5.0; for Inhibition of HTS activity (in words): WMM9 strain, compared with wild strain
T4 construct: The HTS activity in the crude enzyme extract was measured; endogenous in cells; host or cells: E. coli WMM9 (spontaneous MM-resistant mutant of W3110), crude enzyme extract
Protocol: as §1, §2, §4, §3

[5] = molecular target: T5, HTS derived from MM resistant strain WMM7 (IS2 insertion, proline 298 and subsequent residues changed) (Escherichia coli, UniProt P07623); conditions: no addition 0.0 (activity undetectable)
T5 construct: The HTS activity in the crude enzyme extract was measured; endogenous in cells; host or cells: E. coli WMM7 (MM-resistant mutant of W3110 with IS2 in metA), crude enzyme extract
Protocol: as §1, §2, §4, §3

T1 sequence (P07623 whole entry): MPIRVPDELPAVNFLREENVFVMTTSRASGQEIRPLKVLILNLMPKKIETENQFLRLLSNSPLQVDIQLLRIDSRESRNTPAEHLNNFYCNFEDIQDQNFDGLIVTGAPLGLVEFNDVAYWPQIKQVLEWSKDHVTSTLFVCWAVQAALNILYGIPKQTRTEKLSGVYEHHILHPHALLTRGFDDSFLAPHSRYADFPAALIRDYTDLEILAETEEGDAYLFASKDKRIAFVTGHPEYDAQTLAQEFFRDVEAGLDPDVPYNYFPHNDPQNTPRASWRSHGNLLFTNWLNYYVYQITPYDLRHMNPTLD
T5 sequence (P07623 other isoform, or with tags, fused parts or gaps, stated change not applied): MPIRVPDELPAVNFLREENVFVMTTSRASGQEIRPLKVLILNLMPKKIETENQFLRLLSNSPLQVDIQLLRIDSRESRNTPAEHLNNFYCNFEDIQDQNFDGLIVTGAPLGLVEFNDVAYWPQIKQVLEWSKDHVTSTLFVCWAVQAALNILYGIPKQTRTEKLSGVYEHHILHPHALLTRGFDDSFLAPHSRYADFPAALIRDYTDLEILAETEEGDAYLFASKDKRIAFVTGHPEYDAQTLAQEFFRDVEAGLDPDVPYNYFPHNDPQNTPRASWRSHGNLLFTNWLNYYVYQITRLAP
T2 sequence (P07623 whole entry P298L): as the sequence (P07623 whole entry) above, with P298L counted along it
T4 sequence (P07623 whole entry R27C): as the sequence (P07623 whole entry) above, with R27C counted along it
T3 sequence (P07623 whole entry I296S): as the sequence (P07623 whole entry) above, with I296S counted along it

SMILES	HTS activity in the presence of inhibitor ([1]; 0.1 mM inhibitor)	HTS activity in the presence of inhibitor ([1]; 1 mM inhibitor)	HTS activity in the presence of inhibitor ([2]; 0.1 mM inhibitor)	HTS activity in the presence of inhibitor ([2]; 1 mM inhibitor)	Inhibition of HTS activity (in words) [2]	HTS activity in the presence of inhibitor ([3]; 0.1 mM inhibitor)	HTS activity in the presence of inhibitor ([3]; 1 mM inhibitor)	Inhibition of HTS activity (in words) [3]	HTS activity in the presence of inhibitor ([4]; 0.1 mM inhibitor)	HTS activity in the presence of inhibitor ([4]; 1 mM inhibitor)	Inhibition of HTS activity (in words) [4]	HTS activity in the presence of inhibitor ([5]; 0.1 mM inhibitor)	HTS activity in the presence of inhibitor ([5]; 1 mM inhibitor)
C[S+](CC[C@H](N)C(=O)[O-])C[C@H]1O[C@@H](n2cnc3c(N)ncnc32)[C@H](O)[C@@H]1O (stereo partly drawn) [SAM, S-adenosylmethionine]	17.0 mmol/min/mg protein	3.0 mmol/min/mg protein	3.6 mmol/min/mg protein	3.3 mmol/min/mg protein	tendency of cancellation	4.6 mmol/min/mg protein	2.6 mmol/min/mg protein	tendency of cancellation	1.1 mmol/min/mg protein	0.5 mmol/min/mg protein	hardly canceled	0.0 mmol/min/mg protein	0.0 mmol/min/mg protein
CSCCC(C)(N)C(=O)O (racemic) [MM, α-methyl-DL-methionine]	18.6 mmol/min/mg protein	7.0 mmol/min/mg protein	4.6 mmol/min/mg protein	4.8 mmol/min/mg protein	canceled	4.1 mmol/min/mg protein	4.6 mmol/min/mg protein	canceled	4.9 mmol/min/mg protein	2.7 mmol/min/mg protein	canceled	0.0 mmol/min/mg protein	0.0 mmol/min/mg protein
CSCC[C@H](N)C(=O)O [Met, L-methionine]	14.3 mmol/min/mg protein	0.8 mmol/min/mg protein	4.2 mmol/min/mg protein	4.0 mmol/min/mg protein	reduced considerably	4.5 mmol/min/mg protein	4.0 mmol/min/mg protein	reduced considerably	2.5 mmol/min/mg protein	2.2 mmol/min/mg protein	reduced considerably	0.0 mmol/min/mg protein	0.0 mmol/min/mg protein
